Laboratory results as given in patent US8623595B2, “Inactivation of reverse transcriptases by azido-diarylpyrimidines” (Photoimmune Biotechnology Inc., priority 2010, dated 2014).
Like-named read-outs stand apart in the source and are kept apart here.

System: HIV-1
Conditions: for time within which capacity to inactivate HIV-1 reverse transcriptase was lost / permanence of HIV-1 reverse transcriptase inactivation: 10 nM compound, HIV-1 in MT-2 cells
Method: MT-2 cells were contacted with HIV-1 TCID50, and 0, 2, 10, 20, or 50 nM of either DAPY (TMC120-R147681) or azido-DAPY were placed on 50μ/well plates. The plates were placed on ice for 20 minutes and then irradiated at 7.5 cm from a UV light source (UVP lamp model UVGL-25) that provides UV light at a wavelength of 365 nm and an intensity of 1.14 W/cm^2 for a period of 20 minutes. Studies of HIV-1 infected MT-2 cells contacted with DAPY but not UV irradiated, and HIV-1 infected MT-2 cells that were irradiated but not contacted with DAPY or azido-DAPY were also performed.
The inactivation of HIV was evaluated by a reverse transcriptase activity assay as described by Xu et al. (2009). The measurements are provided in counts per minute (cpm).

SMILES: Cc1cc(C)c(Nc2ccnc(Nc3ccc(C#N)cc3)n2)c(C)c1 [DAPY, dapivirine]
- time within which capacity to inactivate HIV-1 reverse transcriptase was lost (with UV light treatment): ≤ 16 days
- permanence of HIV-1 reverse transcriptase inactivation (with UV light): inability to produce a permanent inactivation
- time within which capacity to inactivate HIV-1 reverse transcriptase was lost (without UV light treatment): ≤ 16 days
- permanence of HIV-1 reverse transcriptase inactivation (without UV light): inability to produce a permanent inactivation
- inactivation of HIV-1 in time-exposure studies (compound + UV light exposure, time-exposure studies): not observed
